US9526766B2, “Potentiation of antibiotic treatment with a protein-lipid complex” (priority 2012, dated 2016)

System: Streptococcus pneumoniae
Assay: Short-time kill assay on planktonic cultures
Assay type: cell-based
Conditions: S. pneumoniae D39; 1 hour at 37° C.; fatty acids: concentration required to kill versus that associated with the ALAFAC-complex
Description: Methodology: In late logarithmic growth phase, the bacteria were harvested by centrifugation at 12,000×g for 10 minutes and resuspended in phosphate-buffered saline (PBS; […], […], […], pH 7.4). Appropriate dilutions of the bacteria were suspended in PBS and treated with indicated concentrations of ALAFAC and/or antibiotics for various times. The effect on bacterial viability was assessed by plating serial dilutions of bacterial sample on tryptic soy agar plates containing 5% sheep blood (viable counts) and determining viable colony forming units after overnight growth at 37° C.
Short-time kill assays. In late logarithmic growth phase, the bacteria were harvested by centrifugation at 12,000×g for 10 minutes and resuspended in phosphate-buffered saline (PBS; 30 mM Na2HPO4, 10 mM KH2PO4, […], pH 7.4). Appropriate concentrations of the bacteria (around 10^8 colony forming units per ml) were suspended in PBS and treated with indicated concentrations of ALAFAC and/or antibiotics for various times. The effect on bacterial viability was assessed by plating serial dilutions of bacterial sample on tryptic soy agar plates containing 5% sheep blood (viable counts) and determining viable CFUs after overnight growth at 37° C.

| Compound | Bactericidal activity (FIG. 1) |
| --- | --- |
| CCCCC/C=C\C/C=C\CCCCCCCC(=O)O [linoleic acid] | considerably higher |
| CCCCCCCC/C=C\CCCCCCCC(=O)O [oleic acid] | considerably higher |
